Usually IC50 stands for the concentration that gives 50% inhibition.

In this experiment the test system is FG2. Put plainly: Inhibition of cell adhesion in human FG2 cells assessed as decrease in cell adhesion to matrix incubated for 1 hr by crystal violet staining based assay. It counts as functional. To be noted: FG2, 1 h.
With `Cc1ccnc(Nc2cccc(C(=O)NCC(=O)NC[C@H](NC(=O)c3c(Cl)cccc3Cl)C(=O)O)c2)c1`, the IC50 was less than 10 µM.
`O=C(CNC(=O)c1cccc(NC2=NCC(F)(F)CN2)c1)NC[C@H](NC(=O)c1c(Cl)cc(-c2ccc3cn[nH]c3c2)cc1Cl)C(=O)O`: the IC50 was less than 0.1 µM.
As for `O=C(CNC(=O)c1cccc(NC2=NCCCN2)c1)NC[C@H](NC(=O)c1c(Cl)cccc1Cl)C(=O)O`, the IC50 is less than 0.1 µM.
As for `CNc1cccc(C(=O)NCC(=O)NC[C@H](NC(=O)c2c(Cl)cc(-c3ccccc3)cc2Cl)C(=O)O)n1`, the figure is 1 µM; as for `O=C(CNC(=O)c1cccc(NC2=NCC(O)CN2)c1)NC[C@H](NC(=O)c1c(Cl)cc(-c2ccccc2)cc1Cl)C(=O)O` (stereo partly drawn), less than 0.1 µM.
For the compound `N=C(N)Nc1cccc(C(=O)NCC(=O)NC[C@H](NC(=O)c2c(Cl)cc(-c3ccccc3)cc2Cl)C(=O)O)c1`, the IC50 is less than 0.1 µM.
With `N#C/N=C(\N)Nc1cccc(C(=O)NCC(=O)NC[C@@H](NC(=O)c2c(Cl)cccc2Cl)C(=O)O)c1` the figure was less than 10 µM; with `N=C(N)Nc1ccc2ccn(CCC(=O)NC[C@H](NC(=O)c3c(Cl)cccc3Cl)C(=O)O)c2c1`, less than 10 µM.
Regarding `O=C(CNC(=O)c1cccc(NC2=NCCCN2)c1)NC[C@H](NC(=O)c1c(Cl)cc(-c2ccccc2)cc1Cl)C(=O)O`, the IC50 was less than 0.1 µM.
As for `C/N=C(\NC)Nc1cccc(C(=O)NCC(=O)NC[C@H](NC(=O)c2c(Cl)cc(-c3ccccc3)cc2Cl)C(=O)O)c1`, the IC50 is 0.101 µM.
On to `N#Cc1cc(NC(=N)N)cc(C(=O)NCC(=O)NC[C@H](NC(=O)c2c(Cl)cc(-c3ccccc3)cc2Cl)C(=O)O)c1`, for which the IC50 was less than 0.1 µM.
With `O=C(CNC(=O)c1cccc(NC2=NCCCS2)c1)NC[C@H](NC(=O)c1c(Cl)cc(-c2ccccc2)cc1Cl)C(=O)O` the figure was less than 0.1 µM.
As for `CS(=O)(=O)c1ccc(-c2cc(Cl)c(C(=O)N[C@@H](CNC(=O)CNC(=O)c3cccc(NC(=N)N)c3)C(=O)O)c(Cl)c2)cc1`, the IC50 was less than 0.1 µM.
Consider `O=C(CNC(=O)c1cccc(NC2=NCC(F)CN2)c1)NC[C@H](NC(=O)c1c(Cl)cc(N2CCS(=O)(=O)CC2)cc1Cl)C(=O)O` (stereo partly drawn), for which the IC50 was less than 0.1 µM.
As to `N=C(N)Nc1cccc(C(=O)NCC(=O)NC[C@H](NC(=O)c2c(Cl)cc(N3CCOCC3)cc2Cl)C(=O)O)c1`, the IC50 was less than 0.1 µM.
As for `N=C(N)Nc1cccc(C(=O)NCC(=O)NC[C@H](NC(=O)c2c(Cl)cccc2Cl)C(=O)O)c1`, the 50% inhibitory concentration (IC50) was less than 0.1 µM.
As for `N#C/N=C(\N)Nc1cccc(C(=O)NCC(=O)NC[C@H](NC(=O)c2c(Cl)cccc2Cl)C(=O)O)c1`, the IC50 was determined as 0.1 µM.
As for `CN(CC(=O)NC[C@H](NC(=O)c1c(Cl)cc(-c2ccccc2)cc1Cl)C(=O)O)C(=O)c1cccc(NC(=N)N)c1`, the figure is 0.101 µM; as for `O=C(CNC(=O)c1cccc(NC2=NCC(F)CN2)c1)NC[C@H](NC(=O)c1c(Cl)cc(-c2ccccc2)cc1Cl)C(=O)O` (stereo partly drawn), less than 0.1 µM.
Consider `Cc1cccc(Cl)c1C(=O)N[C@@H](CNC(=O)CNC(=O)c1cccc(NC(=N)N)c1)C(=O)O`, for which the IC50 was less than 1 µM.
As for `O=C(CNC(=O)c1cccc(NC2=NCC(F)CN2)c1)NC[C@H](NC(=O)c1c(Cl)cc(N2CCOCC2)cc1Cl)C(=O)O` (stereo partly drawn), the IC50 is less than 0.1 µM.
With `O=C(CNC(=O)c1cccc(NC2=NCC(F)CN2)c1)NC[C@H](NC(=O)c1c(Cl)cc(-c2ccc3cn[nH]c3c2)cc1Cl)C(=O)O` (stereo partly drawn) the figure was less than 0.1 µM.
`O=C(CNC(=O)c1cccc(NC2=NCC(F)(F)CN2)c1)NC[C@H](NC(=O)c1c(Cl)cc(-c2ccccc2)cc1Cl)C(=O)O`: the IC50 is less than 0.1 µM.
For the compound `O=C(CNC(=O)c1cccc(NC2=NCC(F)(F)CN2)c1)NC[C@H](NC(=O)c1c(Cl)cc(N2CCOCC2)cc1Cl)C(=O)O`, the IC50 is less than 0.1 µM.
`O=C(CNC(=O)c1cccc(NC2=NCCCO2)c1)NC[C@H](NC(=O)c1c(Cl)cc(-c2ccccc2)cc1Cl)C(=O)O`: the IC50 was less than 0.1 µM.
As to `COc1ccc(Nc2cccc(C(=O)NCC(=O)NC[C@H](NC(=O)c3c(Cl)cccc3Cl)C(=O)O)c2)nc1`, the IC50 is less than 50 µM.
With `C[C@@H](NC(=O)c1cccc(NC2=NCC(F)CN2)c1)C(=O)NC[C@H](NC(=O)c1c(Cl)cc(-c2ccccc2)cc1Cl)C(=O)O` (stereo partly drawn) the figure was 0.101 µM; with `N=C(N)Nc1ccc2c(c1)C(NCC(=O)NC[C@H](NC(=O)c1c(Cl)cccc1Cl)C(=O)O)CCO2` (stereo partly drawn), less than 1 µM.

The values are drawn from ChEMBL document CHEMBL5052854, “Alpha-5 beta-1 inhibitors” (2021).
